Patent US6365217B2, “N-[N-(3,3-dimethylbutyl)-L-α-aspartyl]-L-phenylalanine 1-methyl ester agglomerate” (The Nutra Sweet Company, priority 1999, dated 2002)
Residues, ends and D or L forms follow the SMILES beside them.

How the values were obtained:
[1] = under some pH conditions, compared with aspartame; cited from earlier work
[2] = Solubility in water, ethanol and organic solvents; type: physicochemical
[3] = relative to sucrose; cited from earlier work

Row | solubility in ethanol [2] | solubility in water ([2]; water) | SMILES | stability [1] | solubility in organic solvents ([2]; compared with aspartame) | sweetening potency [3]
1 | greater than 100 g/100 ml | about 1% | COC(=O)[C@H](Cc1ccccc1)NC(=O)[C@H](CC(=O)O)NCCC(C)(C)C [N-[N-(3,3-dimethylbutyl)-L-α-aspartyl]-L-phenylalanine 1-methyl ester] | higher stability than aspartame | much higher solubility in organic solvents than aspartame | about 8,000 times
2 | less than 0.1% |  | COC(=O)[C@H](Cc1ccccc1)NC(=O)[C@@H](N)CC(=O)O [aspartame, reference compound] (H-Asp-Phe-OMe) |  |  | 
